Experiment [1] has as its target T1, L-type calcium channel (Rattus norvegicus, UniProt P22002).
T1 construct: The slips of thoracic aorta extracted from Wistar rats were used; from tissue; host or cells: isolated thoracic aorta rings of Wistar rats, endothelium removed
The experiment in a line: Activity of inhibiting L-type calcium channel: relaxation of KCl contraction of isolated rat thoracic aorta. The arrangement: species or system Wistar rats. Particulars: for IC50: KCl contraction of isolated rat thoracic aorta, read-out: L-type inhibition IC50. How it is done:
Activity of Inhibiting the Action of L-type Calcium Channel
The activity of the dihydropyridine derivatives of the present invention to inhibit the action of L-type calcium channel was determined by the following method wherein the relaxation reaction on the KCl contraction of isolated thoracic aorta samples of rats was utilized.
1) Preparation of Isolated Thoracic Aorta Samples of Rats
The slips of thoracic aorta extracted from Wistar rats were used. Blood vessels were cut to form rings having a width of about 3 mm. The endothelial cells of the blood vessels were mechanically removed. The samples were suspended in a strain gauge in Tyrode solution (comprising 158.3 mM of NaCl, 4.0 mM of KCl, […] of MgCl2, 0.42 mM of NaH2PO4, 10 mM of NaHCO3, 2 mM of CaCl2 and 5 mM of glucose) in which a gaseous mixture of O2 (95%) and CO2 (5%) was introduced, to apply a stationary tension of 2 g. The tension of the blood vessel was recorded with a multipen recorder (Rikadenki Kogyo Co., Ltd.) by using a transducer after the amplification with a tension amplifier (EF-601G; Nihon Kohden Corporation). The experiments were conducted at 37° C.
2) Determination of Relaxation Reaction Against KCl contraction
After the tension was stabilized, the nutrient solution in the sample tank was replaced with High K^+ Tyrode solution (comprising 112.3 mM of NaCl, 50 mM of KCl, 1.05 mM of MgCl2, 0.42 mM of NaH2PO4, 10 mM of NaHCO3, 2 mM of CaCl2 and 5 mM of glucose) to cause the contraction reaction. 30 minutes after, the solution in the sample tank was replaced with normal Tyrode solution. Then, the solution in the sample tank was again replaced with High K^+ Tyrode solution and the contraction reaction was observed. After the maximum contraction reaction occurred, a test compound was cumulatively added to realize concentrations of 10^−9, 10^−8, 10^−7 and 10^−6 M at intervals of 90 minutes. The inhibition rate of the test compound on the maximum contraction reaction was employed as the index of the activity of inhibiting the action of L-type calcium channel.

For experiment [2], the target named is T2, N-type calcium channel (Homo sapiens, UniProt Q00975).
T2 construct: Human neuroblastoma cell IMR-32 was obtained from ATCC (American Type Culture Collection); host or cells: IMR-32 human neuroblastoma cells, differentiated with dibutyl cAMP and bromodeoxyuridine
T2 sequence (Q00975 whole entry): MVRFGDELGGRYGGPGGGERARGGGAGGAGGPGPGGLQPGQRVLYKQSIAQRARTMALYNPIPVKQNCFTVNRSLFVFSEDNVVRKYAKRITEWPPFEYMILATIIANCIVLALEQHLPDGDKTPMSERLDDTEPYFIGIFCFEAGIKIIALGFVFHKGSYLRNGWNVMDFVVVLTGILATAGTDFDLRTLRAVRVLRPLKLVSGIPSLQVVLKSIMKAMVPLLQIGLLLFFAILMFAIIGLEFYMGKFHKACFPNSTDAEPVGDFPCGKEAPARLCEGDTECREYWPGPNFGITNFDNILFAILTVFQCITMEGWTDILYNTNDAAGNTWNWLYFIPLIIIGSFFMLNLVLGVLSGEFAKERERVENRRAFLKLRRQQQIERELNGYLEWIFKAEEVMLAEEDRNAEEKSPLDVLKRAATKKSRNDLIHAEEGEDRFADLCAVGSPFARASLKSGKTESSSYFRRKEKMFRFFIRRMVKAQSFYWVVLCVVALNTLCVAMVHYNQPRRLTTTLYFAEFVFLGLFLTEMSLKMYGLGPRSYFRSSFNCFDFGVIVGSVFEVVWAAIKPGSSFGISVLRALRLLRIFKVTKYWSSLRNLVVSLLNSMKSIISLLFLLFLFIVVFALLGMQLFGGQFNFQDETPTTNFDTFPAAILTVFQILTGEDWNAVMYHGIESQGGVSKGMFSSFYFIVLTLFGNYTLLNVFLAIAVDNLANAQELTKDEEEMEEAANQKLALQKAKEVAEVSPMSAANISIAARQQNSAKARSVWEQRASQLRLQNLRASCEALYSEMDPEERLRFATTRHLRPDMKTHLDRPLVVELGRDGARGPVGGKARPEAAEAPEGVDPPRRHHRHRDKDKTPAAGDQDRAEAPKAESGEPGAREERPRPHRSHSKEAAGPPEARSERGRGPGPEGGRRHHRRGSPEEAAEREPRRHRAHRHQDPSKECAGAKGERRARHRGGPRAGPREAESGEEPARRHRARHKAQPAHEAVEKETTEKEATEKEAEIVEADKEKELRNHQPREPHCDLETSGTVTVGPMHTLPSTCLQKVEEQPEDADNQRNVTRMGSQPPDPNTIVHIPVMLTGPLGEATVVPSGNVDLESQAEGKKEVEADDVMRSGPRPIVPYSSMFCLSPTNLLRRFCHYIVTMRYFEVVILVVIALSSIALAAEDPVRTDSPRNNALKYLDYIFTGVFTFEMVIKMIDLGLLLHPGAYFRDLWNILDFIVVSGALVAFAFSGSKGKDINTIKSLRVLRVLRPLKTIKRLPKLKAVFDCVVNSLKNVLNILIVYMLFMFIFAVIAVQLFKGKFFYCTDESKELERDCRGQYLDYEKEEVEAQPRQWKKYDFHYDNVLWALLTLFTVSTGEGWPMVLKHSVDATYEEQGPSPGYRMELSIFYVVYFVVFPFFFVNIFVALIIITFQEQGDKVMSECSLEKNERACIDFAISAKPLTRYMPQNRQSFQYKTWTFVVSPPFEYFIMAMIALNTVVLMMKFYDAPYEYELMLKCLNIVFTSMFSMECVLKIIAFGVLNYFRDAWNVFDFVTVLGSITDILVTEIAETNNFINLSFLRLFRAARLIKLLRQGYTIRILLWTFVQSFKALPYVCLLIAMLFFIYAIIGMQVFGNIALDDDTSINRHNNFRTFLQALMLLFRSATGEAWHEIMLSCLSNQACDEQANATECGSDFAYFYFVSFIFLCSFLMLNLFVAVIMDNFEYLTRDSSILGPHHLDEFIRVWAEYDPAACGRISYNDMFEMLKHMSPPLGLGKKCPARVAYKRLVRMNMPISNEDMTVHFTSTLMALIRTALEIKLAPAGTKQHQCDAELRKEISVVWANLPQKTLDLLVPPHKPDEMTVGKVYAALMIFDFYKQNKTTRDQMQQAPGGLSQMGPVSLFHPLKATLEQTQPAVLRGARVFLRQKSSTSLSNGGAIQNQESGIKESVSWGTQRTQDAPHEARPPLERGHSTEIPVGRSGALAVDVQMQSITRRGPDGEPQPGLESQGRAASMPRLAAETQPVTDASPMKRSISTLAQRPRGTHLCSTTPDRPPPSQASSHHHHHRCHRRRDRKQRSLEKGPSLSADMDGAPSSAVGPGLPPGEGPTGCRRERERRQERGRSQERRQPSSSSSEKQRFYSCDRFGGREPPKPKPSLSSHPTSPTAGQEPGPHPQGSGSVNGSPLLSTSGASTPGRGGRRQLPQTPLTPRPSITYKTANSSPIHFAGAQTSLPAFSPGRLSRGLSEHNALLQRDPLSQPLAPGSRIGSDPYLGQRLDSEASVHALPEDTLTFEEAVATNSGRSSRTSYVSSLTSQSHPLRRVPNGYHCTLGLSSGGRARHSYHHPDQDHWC
T2 sequence (P54289 25-956 partner limits assumed): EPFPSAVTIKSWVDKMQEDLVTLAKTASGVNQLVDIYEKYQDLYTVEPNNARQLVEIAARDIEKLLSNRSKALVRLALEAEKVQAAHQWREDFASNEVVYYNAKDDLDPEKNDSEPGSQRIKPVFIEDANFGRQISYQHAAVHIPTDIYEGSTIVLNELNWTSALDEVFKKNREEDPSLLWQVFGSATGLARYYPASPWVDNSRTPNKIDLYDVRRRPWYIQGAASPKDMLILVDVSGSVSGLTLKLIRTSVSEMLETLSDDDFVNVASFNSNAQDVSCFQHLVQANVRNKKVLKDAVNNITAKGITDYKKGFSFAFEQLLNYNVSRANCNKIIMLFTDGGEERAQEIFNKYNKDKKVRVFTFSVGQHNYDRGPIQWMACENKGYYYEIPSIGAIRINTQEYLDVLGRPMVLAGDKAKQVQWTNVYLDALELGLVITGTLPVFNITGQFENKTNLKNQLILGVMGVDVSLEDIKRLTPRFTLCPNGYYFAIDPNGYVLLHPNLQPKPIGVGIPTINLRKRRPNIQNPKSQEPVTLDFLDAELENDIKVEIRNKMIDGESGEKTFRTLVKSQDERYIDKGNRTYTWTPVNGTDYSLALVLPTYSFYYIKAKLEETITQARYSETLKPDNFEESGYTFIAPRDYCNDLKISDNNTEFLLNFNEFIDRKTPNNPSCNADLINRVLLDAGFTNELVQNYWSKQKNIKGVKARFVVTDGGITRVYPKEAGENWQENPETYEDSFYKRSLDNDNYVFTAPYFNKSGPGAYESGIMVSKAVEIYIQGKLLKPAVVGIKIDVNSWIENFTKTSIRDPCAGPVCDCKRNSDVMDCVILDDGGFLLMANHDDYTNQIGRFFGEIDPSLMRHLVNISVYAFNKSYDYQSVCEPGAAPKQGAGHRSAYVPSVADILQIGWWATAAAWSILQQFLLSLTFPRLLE
T2 sequence (P54289 957-1103 partner limits assumed): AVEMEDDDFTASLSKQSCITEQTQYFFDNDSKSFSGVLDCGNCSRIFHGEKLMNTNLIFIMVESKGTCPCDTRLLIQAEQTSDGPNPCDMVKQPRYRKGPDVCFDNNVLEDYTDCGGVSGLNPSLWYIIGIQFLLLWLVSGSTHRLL
T2 sequence (P54284 whole entry partner): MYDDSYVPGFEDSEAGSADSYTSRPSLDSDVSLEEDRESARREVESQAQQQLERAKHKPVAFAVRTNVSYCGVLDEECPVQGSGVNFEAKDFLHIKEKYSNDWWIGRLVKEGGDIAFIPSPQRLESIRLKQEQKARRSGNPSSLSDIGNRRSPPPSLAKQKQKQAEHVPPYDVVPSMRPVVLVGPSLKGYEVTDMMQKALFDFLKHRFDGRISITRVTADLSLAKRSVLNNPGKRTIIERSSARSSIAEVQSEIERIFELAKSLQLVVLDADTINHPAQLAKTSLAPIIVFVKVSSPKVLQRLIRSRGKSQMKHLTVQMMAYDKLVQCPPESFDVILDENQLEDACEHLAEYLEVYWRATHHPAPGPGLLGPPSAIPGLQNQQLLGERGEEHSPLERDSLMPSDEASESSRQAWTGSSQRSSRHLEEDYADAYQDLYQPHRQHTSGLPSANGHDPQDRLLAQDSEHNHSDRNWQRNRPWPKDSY
The experiment can be described thus: Activity of inhibiting N-type calcium channel (fluorescent dye method), IMR-32 cells. Particulars: fluorescent dye (fura-2) method, 60 mM KCl stimulation, 1 μM Nifedipine present; for IC50: read-out: N-type inhibition pIC50 (converted). Format: cell-based. Here is the method:
Activity of Inhibiting the Action of N-type Calcium Channel (Fluorescent Dye Method):
Human neuroblastoma cell IMR-32 was obtained from ATCC (American Type Culture Collection). The culture medium was prepared by adding 2 mM of L-glutamine (GIBCO), 1 mM of sodium pyruvate of pH 6.5 (GIBCO), a liquid antibiotic/antimicotic mixture (GIBCO) and 10% fetal calf serum (Cell Culture Technologies) to an Eagle minimum essential medium (GIBCO) free of Phenol Red and containing earle's salts supplyment. 3 ml of 1×10^5/ml IMR-32 cells was spread on a glass dish (Iwaki Glass Co., Ltd.) having a bottom diameter of 35 mm, which had been treated with poly-D-lysine (SIGMA) and also with collagen (COLLAGEN VITROGEN 100; a product of Collagen Co.). After the culture for 2 days, 1 mM (final concentration) of dibutyl cAMP and 2.5 μM of bromodeoxyuridine (SIGMA) were added to the culture mixture. After the culture for additional 10 to 14 days, the cells were used for the activity determination. The IMR-32 cell medium prepared as described above was replaced with Eagle minimum essential medium (GIBCO) containing 1 ml of 10 μM fura-2/AM (Dojin Kagaku Co.) and earle's salts supplyment but free of Phenol Red, and the incubation was conducted at 25° C. for one hour.
Then the medium was replaced with fura-2/AM-free Eagle minimum essential medium (GIBCO) free of Phenol Red and containing earle's salts supplyment. After conducting the incubation at 37° C. for one hour, the medium was replaced with a recording medium (comprising 20 mM of HEPES-KOH, 115 mM of NaCl, 5.4 mM of KCl, 0.8 mM of MgCl2, 1.8 mM of CaCl2 and 13.8 mM of D-glucose). The N-calcium channel inhibition activity was determined and analyzed with a fluorescent microscope (Nikon corporation) and an image analysis apparatus ARGUS 50 (Hamamatsu Photonics). Namely, a recording medium (comprising 20 mM of HEPES-KOH, 115 mM of NaCl, 5.4 mM of KCl, 0.8 mM of MgCl2, 1.8 mM of CaCl2 and 13.8 mM of D-glucose) containing 1 μM of Nifedipine was applied to the cells and refluxed by Y-tube method for 2 minutes. Then, a 60 mM potassium chloride-containing stimulating agent was rapidly given. Thereafter, 60 mM potassium chloride-containing stimulating agents which further contained 0.1, 1 or 10 μM of a test compound were rapidly and successively administered by Y-tube method to determine the channel inhibition activity. Finally, 60 mM potassium chloride-containing stimulating agent further containing 1 μM of omega conotoxin (Peptide Kenkyu-sho) was rapidly given by Y-tube method to realize 100% inhibition of the N-type calcium channel.

Experiment [3] deals with T3, N-type calcium channel (Rattus norvegicus, UniProt Q02294).
T3 construct: from tissue; host or cells: acutely dissociated sympathetic ganglion cells of Wistar rats (2 to 4 weeks old)
The experiment can be described thus: Inhibition activity of N-type calcium channel (patch clamp method), rat maxillary sympathetic ganglion cells. The experiment is classed as cell-based, Wistar rats. Particulars: 0.1 uM compound, whole cell voltage clamp, barium current. How it is done:
Inhibition Activity of N-type Calcium Channel (Patch Clamp Method)
1) Preparation of Cells of Maxillary Sympathetic Ganglions of Rats
The cervix of each of Wistar rats (2 to 4 weeks old) was opened to expose the maxillary ganglions under anesthesia with pentobarbital. A pair of the ganglions were removed and immediately washed with Ca^2+-free Tyrode solution cooled with ice. Each ganglion was cut into 3 or 4 pieces and kept in the Ca^2+-free Tyrode solution for 15 minutes. Then, these pieces were treated with papain [Washington Biochemicals (lot#35J557); 20 U/ml] for 20 minutes and then with a mixture of 2-type collagenase [Washington Biochemicals (CLS2); 5900 U/ml]and dispase [Calbiochem (lot#1312973); 16 mg/ml] for one hour. After enzymatic treatment, the ganglion cells were mechanically isolated by pipetting. The isolated ganglion cells were used for the experiments within 6 hours.
2) Determination of Calcium Electric Current
The calcium electric current was determined by the whole cell voltage clamp method under the fixed membrane potential. The pipette electrode was pulled from glass tube (inner diameter: 1.5 mm; Narishige) in two stage of a vertical pipette puller (PB-7; Narishige). The ionic current was amplified with a patch amplifier (CEZ-2300; Nihon Kohden Corporation). The noises were cut at 10 kHz (E-3201B, NF Electronic Instrument) and then the ionic current was monitored on a storage oscilloscope (DS-9121, Iwatsu) and, at the same time, recorded with a DAT data recorder (RD-120TE, TEAC). Then it was passed through a 1 kHz filter and recorded in a computer (Compaq DeskPro) with pCLAMP software (Axon Instrument) of 3 kHz. All the experiments were performed at room temperature (25±2° C.). In the measurement of the current through the calcium channel, 10 mM barium (composition of the solution: shown below) was used in place of calcium as the charge carrier. The transmission of barium through the calcium channel was higher than that of calcium in the sympathetic ganglion cells, and the calcium-dependent channel inactivation was slight when barium was used.
The test compounds were rapidly administered by Y-tube method by Murase et al. [Brain Res. 525, 84 (1990)]. Each compound was dissolved in DMSO preparing 10 mM mother solution. At the highest drug concentration used, the vehicle (0.1%) had no significant effect on the calcium electric current.
Composition of Normal Tyrode's solution: NaCl; 143, KCl; 4, MgCl2; 0.5; CaCl2; 1.8, glucose; 5.5, NaH2PO4; 0.33, HEPES; 5 (Mm). The pH was adjusted to 7.4 with tris-OH.
Composition of Ca-free Tyrode's solution: the same as that of the Normal Tyrode's solution except that it was free of CaCl2.
External solution for the determination of calcium electric current (mM): TEACl; 144, CsCl;. […]
(In patch-clamp work, channel activity is measured electrically.)

The mark [4] stands for this setting: 10^−7 M compound, inhibition rate on maximum KCl contraction of rat thoracic aorta.

This is an account of results in patent US6350762B1, “Dihydropyridine derivative” (Ajinomoto Co., Inc., priority 1997, dated 2002).

One may read the inhibition as the relative decrease from the control value, in per cent.

Regarding `CC1=C(C(=O)O)C(c2cccc(Cl)c2)C(C(=O)NCC=Cc2ccccc2)=C(C)N1` (stereo not shown) [Example 1, 4-(3-chlorophenyl)-2,6-dimethyl-5-(3-phenyl-2-propene-1-ylcarbamoyl)-1,4-dihydropyridine-3-carboxylic acid], the inhibition at 0.1 µM was found to be 19% in experiment [1] (setting [4]) and 35% in experiment [3]. Besides, the IC50 is greater than 1 µM in experiment [1] and 5.01 µM in experiment [2].
With `CC1=C(C(=O)O)C(c2cccc([N+](=O)[O-])c2)C(C(=O)NC/C=C/c2ccccc2)=C(C)N1` (stereo not shown) [Example 4, 2,6-dimethyl-4-(3-nitrophenyl)-5-(3-phenyl-2-propene-1-ylcarbamoyl)-1,4-dihydropyridine-3-carboxylc acid], the inhibition at 0.1 µM was -7% in experiment [1] (setting [4]) and 16% in experiment [3]. Also, the IC50 in experiment [1] is 0.914 µM; in experiment [2], 1.58 µM.
Turning to `CC1=C(C(=O)O)C(c2cccc(C#N)c2)C(C(=O)NCC=Cc2ccccc2)=C(C)N1` (stereo not shown) [Example 10, 4-(3-cyanophenyl)-2,6-dimethyl-5-(3-phenyl-2-propene-1-ylcarbamoyl)-1,4-dihydropyridine-3-carboxylic acid], the IC50 in experiment [2] was 2.51 µM.
Turning to `CC1=C(C(=O)O)C(c2ccc([N+](=O)[O-])cc2)C(C(=O)NCC=Cc2ccccc2)=C(C)N1` (stereo not shown) [Example 17, 2,6-dimethyl-4-(4-nitrophenyl)-5-[(3-phenyl-2-propene-1-yl)carbamoyl]-1,4-dihydropyridine-3-carboxylic acid], the results for the inhibition at 0.1 µM in experiment [1] (setting [4]) and in experiment [3] were -6% and 16%, respectively. Besides, the IC50 in experiment [1] was greater than 1 µM; in experiment [2] it was 1.58 µM.
Take `CC1=C(C(=O)O)C(c2cccc(Cl)c2)C(C(=O)NCC(=O)Nc2ccccc2)=C(C)N1` (stereo not shown) [Example 21, 4-(3-chlorophenyl)-2,6-dimethyl-5-(phenylcarbamoylmethylcarbamoyl)-1,4-dihydropyridine-3-carboxylic acid]: the IC50 in experiment [2] is 0.794 µM.
Still for that read-out and setting: for `CC1=C(C(=O)O)C(c2cccc(Cl)c2)C(C(=O)NCCC(c2ccccc2)c2ccccc2)=C(C)N1` (stereo not shown) [Example 34, 4-(3-chlorophenyl)-2,6-dimethyl-5-(3,3-diphenylpropylcarbamoyl)-1,4-dihydropyridine-3-carboxylic acid] the value was 0.631 µM.
On to “(3-phenyl-2-propene-1-yl) 4-(3-chlorophenyl)-5-cyano-2,6-dimethyl-1,4-dihydropyridine-3-carboxylate [Example 12]”, for which, in experiment [1] (setting [4]), the “L-type inhibition 10^−7 M (%)” value worked out at 21%. Moreover, the IC50 in experiment [1] stood at 0.22 µM. The “N-type inhibition pIC50” value in experiment [2] was determined as 5.9. Further, in experiment [3], the “N-type inhibition 0.1 uM (%)” value turned out to be 24%.
